Tests used:
PRMT5/MEP50 = molecular target: T1, PRMT5/MEP50 (Homo sapiens, UniProt O14744); assay: PRMT5 Biochemical Assay (PRMT5/MEP50 enzyme assay on peptide substrate, 3H-SAM Flashplate); conditions: PRMT5/MEP50 4 nM, 3H-SAM 75 nM, peptide 40 nM, 30 min preincubation at 25 degrees Celsius
T1 construct: Flag-PRMT5; made in house; host or cells: Spodoptera frugiperda (SF9) insect cells, baculovirus (pDEST8)
Method in brief: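 FLAG-PRMT5/His-MEP50 from Sf9 cells (4 nM) preincubated 30 min at 25 °C with compounds, then reacted with 75 nM 3H-SAM and 40 nM biotinylated histone H4 1-15 peptide in Bicine pH 7.6, 1% DMSO. Stopped with 600 uM cold SAM; streptavidin Flashplate capture, scintillation counts; % inhibition fitted to 3- or 4-parameter curve.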

Z-138 cell line = assay: Z-138 Proliferation Assay (Cell Titer Glo); assay type: cell-based; conditions: Homo sapiens, 120 h; Z-138 cells, 5 days incubation, ATP (Cell Titer Glo)
Method in brief: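 Z-138 cells in RPMI with 10% FBS exposed 5 days at 37 °C to nine-point 3-fold dilutions, top 20 μM final, 0.2% DMSO, triplicate. ATP-based CellTiter-Glo luminescence; IC50 from 4-parameter fit of normalized curves.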

T1 sequence (O14744 with tags, fused parts or gaps): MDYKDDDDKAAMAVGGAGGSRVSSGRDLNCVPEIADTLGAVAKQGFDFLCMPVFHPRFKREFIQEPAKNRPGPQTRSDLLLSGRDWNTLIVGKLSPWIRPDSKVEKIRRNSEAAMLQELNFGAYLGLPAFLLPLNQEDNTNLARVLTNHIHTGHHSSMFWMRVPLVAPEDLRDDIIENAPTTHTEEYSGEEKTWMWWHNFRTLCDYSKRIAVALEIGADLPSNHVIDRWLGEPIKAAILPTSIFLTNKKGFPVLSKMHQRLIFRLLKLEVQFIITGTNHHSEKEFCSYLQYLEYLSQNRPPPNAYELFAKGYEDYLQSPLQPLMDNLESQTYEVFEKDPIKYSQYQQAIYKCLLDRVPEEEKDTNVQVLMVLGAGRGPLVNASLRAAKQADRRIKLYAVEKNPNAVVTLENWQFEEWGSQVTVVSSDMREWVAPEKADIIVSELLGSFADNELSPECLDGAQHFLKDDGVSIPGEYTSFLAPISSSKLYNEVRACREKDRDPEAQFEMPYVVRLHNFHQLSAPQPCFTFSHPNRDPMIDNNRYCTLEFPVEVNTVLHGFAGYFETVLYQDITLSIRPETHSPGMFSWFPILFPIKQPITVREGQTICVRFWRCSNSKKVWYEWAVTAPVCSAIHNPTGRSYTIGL
T1 sequence (Q9BQA1 with tags, fused parts or gaps partner limits assumed): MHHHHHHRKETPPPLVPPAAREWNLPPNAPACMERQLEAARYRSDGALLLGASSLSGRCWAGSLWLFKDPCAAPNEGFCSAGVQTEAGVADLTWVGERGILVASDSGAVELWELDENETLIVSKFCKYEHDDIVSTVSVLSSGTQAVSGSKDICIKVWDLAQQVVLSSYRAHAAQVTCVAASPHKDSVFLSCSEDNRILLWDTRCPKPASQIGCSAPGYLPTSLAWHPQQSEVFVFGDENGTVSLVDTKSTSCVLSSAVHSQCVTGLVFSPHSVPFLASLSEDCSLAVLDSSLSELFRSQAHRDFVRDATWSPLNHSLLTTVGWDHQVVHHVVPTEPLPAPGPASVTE

Row | Structure (SMILES) | IC50 (PRMT5/MEP50) [µM] | EC50 (Z-138 cell line) [µM]
1 | CC(=O)N1CCC(Nc2cc(C(=O)NC[C@H](O)CN3CCc4sc(C)nc4C3)ncn2)CC1 [Compound 1-36] | 1 to 10 | > 5
2 | CC(=O)N1CC(Nc2cc(C(=O)NC[C@H](O)CN3CCc4cnccc4C3)ncn2)C1 [Compound 2-16] | 0.101 to 1 | > 5
3 | CC(=O)N1CCC(Nc2cc(C(=O)NC[C@H](O)CN3CCc4scc(C)c4C3)ccn2)CC1 [Compound 1-14, (S)-2-((1-acetylpiperidin-4-yl)amino)-N-(2-hydroxy-3-(3-methyl-6,7-dihydrothieno[3,2-c]pyridin-5(4H)-yl)propyl)isonicotinamide] | < 0.1 | 0.101 to 1
4 | CC(=O)N1CCC(Nc2cc(C(=O)NC[C@H](O)CN3CCc4ccncc4C3)ccn2)CC1 [Compound 2-19, (S)-2-((1-acetylpiperidin-4-yl)amino)-N-(3-(3,4-dihydro-2,7-naphthyridin-2(1H)-yl)-2-hydroxypropyl)isonicotinamide] | 0.101 to 1 | > 5
5 | CC(=O)N1CCC(Nc2cc(C(=O)NC[C@H](O)CN3CCc4sc(N)nc4C3)ncn2)CC1 [Compound 1-37] | 1 to 10 | > 5
6 | O=C(NC[C@H](O)CN1CCc2sccc2C1)c1cc(NC2COC2)ncn1 [Compound 1-1, (S)—N-(3-(6,7-dihydrothieno[3,2-c]pyridin-5(4H)-yl)-2-hydroxypropyl)-6-(oxetan-3-ylamino)pyrimidine-4-carboxamide] | < 0.1 | 1 to 10
7 | CC(=O)N1CC(Nc2cc(C(=O)NC[C@H](O)CN3CCc4scc(C)c4C3)ncn2)C1 [Compound 1-12, (S)-6-((1-acetylazetidin-3-yl)amino)-N-(2-hydroxy-3-(3-methyl-6,7-dihydrothieno[3,2-c]pyridin-5(4H)-yl)propyl)pyrimidine-4-carboxamide] | < 0.1 | 0.101 to 1
8 | CC(=O)N1CCC(Nc2cc(C(=O)NC[C@H](O)CN3CCc4ncccc4C3)ccn2)CC1 [Compound 2-20, (S)-2-((1-acetylpiperidin-4-yl)amino)-N-(3-(7,8-dihydro-1,6-naphthyridin-6(5H)-yl)-2-hydroxypropyl)isonicotinamide] | 0.101 to 1 | > 5

Now from value to compound, other results behind:

Row | IC50 (PRMT5/MEP50) [µM] | Structure (SMILES) | EC50 (Z-138 cell line) [µM]
9 | > 10 | CC(=O)N1CCC(Nc2cc(C(=O)NC[C@H](O)CN3CCc4oc(C)nc4C3)ccn2)CC1 [Compound 4-4, (S)-2-((1-acetylpiperidin-4-yl)amino)-N-(2-hydroxy-3-(2-methyl-6,7-dihydrooxazolo[4,5-c]pyridin-5(4H)-yl)propyl)isonicotinamide] | > 5
10 | > 10 | Cc1nc2c([nH]1)CCN(C[C@@H](O)CNC(=O)c1cc(NC3COC3)ncn1)C2 [Compound 3-41] | > 5
11 | > 10 | CC(=O)N1CCC(Nc2cc(C(=O)NC[C@H](O)CN3CCc4oc(C)nc4C3)ncn2)CC1 [Compound 4-3, (S)-6-((1-acetylpiperidin-4-yl)amino)-N-(2-hydroxy-3-(2-methyl-6,7-dihydrooxazolo[4,5-c]pyridin-5(4H)-yl)propyl)pyrimidine-4-carboxamide] | > 5
12 | 1 to 10 | CC(=O)N1CCC(Nc2cc(C(=O)NC[C@H](O)CN3CCc4[nH]ncc4C3)ccn2)CC1 [Compound 3-21] | > 5
13 | > 10 | O=C(NC[C@H](O)CN1CCc2[nH]nc(-c3ccccc3)c2C1)c1cc(NC2COC2)ncn1 [Compound 3-17, (S)—N-(2-hydroxy-3-(3-phenyl-6,7-dihydro-1H-pyrazolo[4,3-c]pyridin-5(4H)-yl)propyl)-6-(oxetan-3-ylamino)pyrimidine-4-carboxamide] | > 5

Source: US20170210751A1, “PRMT5 INHIBITORS AND USES THEREOF” (Epizyme, Inc., priority 2014, published 2017)
